Source: patent publication US12172992B2, “Pyrimidines for degrading Bruton's tyrosine kinase” (AbbVie Inc., priority 2022, dated 2024)

How the values were obtained:
BTK in mouse bone marrow = BTK in mouse bone marrow (Mus musculus (Mouse), UniProt P35991); assay: Mouse Bone Marrow Assay (MSD ELISA of BTK degradation in bone marrow); format: in vivo; settings: female C57BL/6J mice, single dose of Dose A, bone marrow collected after 24 hours
Method: Female C57BL/6J mice (Jackson Laboratories) were used for this study. Compounds or vehicle/control were prepped with EtOH; PEG-400; Phosal 53 MCT (10:30:60, v/v). Four mice were tested per compound or vehicle/control. On Day 1, mice were administered a single dose of Dose A. On Day 2 (after 24 hours), tissue (bone marrow) was collected from one hind leg per mouse.
An MSD (Meso Scale Discovery) ELISA (enzyme-linked immunosorbent assay) based assay was used to determine BTK degradation in mouse bone marrow. The following materials and equipment were used: 10% NP40 solution (nonionic polyoxyethylene surfactant, ThermoFisher, cat no. 28324); protease inhibitor mini tablet (Roche, cat no. 05 892 970 001); PhosphoSTOP™ tablet (Roche, cat no. 04 906 837 001); Pierce™ BCA Protein Assay Kit (Thermofisher, Cat No. 23225); Precellys® 2 mL lysing tube with 2.8 mm beads (VWR, cat no. 10032-756); Bertin Precellys® 24/Cryolys® cooling system; 96-well MSD streptavidin pre-coated plates (MSD, cat no. L15SA-1); MSD Blocker A (MSD, cat no. R93BA-4); capture antibody, biotinylated BTK mAb (BD Biosciences, cat no. 624008; custom order); primary detection antibody, BTK RpAb (rabbit polyclonal antibody, CST, cat no. 8547S, D3H5 clone); secondary detection antibody, anti-Rabbit-Sulfo-Tag (MSD, cat no. R32AB-1); read Buffer, 4× (MSD, cat no. R92TC-1); recombinant BTK protein (Thermofisher, cat no. PR5442A); MSD Tris Wash Buffer (10×) (MSD, cat no. R61TX-1); PBS (phosphate-buffered saline); deionized water (diH2O); Lysis Buffer [0.2% NP40 in PBS+Protease Inhibitor tablet (1 tablet/10 mL)+PhosphoSTOP tablet (1 tablet/10 mL)]; 3% MSD Blocker A [MSD Blocker A+450 mL diH2O+50 mL]; and 10×MSD Tris Wash Buffer.
Lysis buffer [(PBS+0.2% NP40+PI (protease inhibitor)+PhosphoSTOP)] was prepared and put on ice until it was fully cold. Ice cold lysis buffer […] was added to each Precellys® tube containing beads and bone marrow sample. Sample tubes were transferred into Precellys® machine and homogenized using 5000 rpm—2×20 seconds. The sample lysates were centrifuged at 14,000 rpm for 20 minutes at 4° C. after homogenizing.
The protein concentration was determined using Pierce™ BCA Protein Assay Kit following manufacturer's recommended protocol. The protein normalized working solution was prepared, using 30 μg protein per sample lysate for assay.
A 300 ng/ml working stock solution of recombinant BTK protein in lysis buffer was prepared, and the sample was serially diluted at 3-fold dilution (10-point assay, highest concentration was 300 ng/mL and lowest concentration was 0.015 ng/mL)
MSD plate coating: Coating antibody (biotinylated-BTK mAb) stock solution was prepared at 1 μg/mL in PBS buffer. 50 μL/well capture antibody (Biotinylated BTK mAb) solution was added, and the plates were shaken gently at ambient temperature for two hours. The plates were washed 3 times with 1×MSD Tris Wash Buffer in a plate washer (300 μL/well), and the plates were blocked with 3% MSD Blocker A (150 μL/well). The plates were incubated for an additional 1-2 hours at ambient temperature with gentle shaking. The plates were washed 3 times with 1×MSD wash buffer using plate washer. Bone marrow lysates (30 μg) at a final volume of 50 μL/well were added into the plates. The serially diluted standard samples were added to the same plates at a final volume of 50 μL/well. The plates were incubated overnight at 4° C. with gentle shaking.
The plates were washed three times with 1×MSD wash buffer (prepared from 10× concentration buffer) using plate washer. Primary detection antibody at 50 μL/well was added (BTK RpAb; 1:1000 dilution in 1% MSD Blocker A). The plates were incubated for two hours at ambient temperature with gentle shaking. The plates were washed three times with 1×MSD wash buffer using plate washer. Anti-Rabbit-SULFO-TAG secondary antibodies (50 μl/well) were added, 1:500 diluted in 1% MSD Blocker A, and the plates were incubated for one to two hours at ambient temperature. […]

[1] = system: TCL1-driven CLL bearing BTK^C481S mutation; assay: TCL1-driven CLL bearing BTK C481S mutation in C57BL/6 mice, circulating leukemia burden; format: in vivo, mouse
Excerpt: EIA-TCL1 CLL transgenic mice (Crogen Pharmaceuticals LLC) were crossed with BTK^C481S knock-in mice (AbbVie) to generate Eμ-TCL1 transgenic mice carrying the BTK^C481S mutation. The leukemic splenocytes from these BTK^C481S Eμ-TCL1 transgenic mice (Passage 1) were transplanted intravenously into C57BL/6 mice, leading to CLL development in the peripheral blood and spleen. When circulating CLL burden (CD5+CD19+ cells as described below) in the recipient mice reached over 90%, their splenocytes (Passage 2) containing high CLL burden were cryopreserved and used for CLL efficacy studies. […]
To determine the absolute/total leukocyte numbers, complete blood counts were determined for each mouse using the Genesis™ veterinary hematology analyzer (Oxford Science Inc.).
Cells isolated from murine peripheral blood mononuclear cells (PMBCs) were collected to determine antigen expression. […] Cells were gated on CD45+, and thereafter the percentage of cells that were CD5+CD19+ from that subset was calculated. […]
Whole blood was collected weekly post tumor implantation via submandibular cheek bleeding. Circulating leukemic burden was calculated by multiplying absolute/total leukocyte count with the percentage of the leukocytes have the immunophenotype CD19^+CD5^+. […]

BTK in mouse bone marrow, sequence (P35991 whole entry): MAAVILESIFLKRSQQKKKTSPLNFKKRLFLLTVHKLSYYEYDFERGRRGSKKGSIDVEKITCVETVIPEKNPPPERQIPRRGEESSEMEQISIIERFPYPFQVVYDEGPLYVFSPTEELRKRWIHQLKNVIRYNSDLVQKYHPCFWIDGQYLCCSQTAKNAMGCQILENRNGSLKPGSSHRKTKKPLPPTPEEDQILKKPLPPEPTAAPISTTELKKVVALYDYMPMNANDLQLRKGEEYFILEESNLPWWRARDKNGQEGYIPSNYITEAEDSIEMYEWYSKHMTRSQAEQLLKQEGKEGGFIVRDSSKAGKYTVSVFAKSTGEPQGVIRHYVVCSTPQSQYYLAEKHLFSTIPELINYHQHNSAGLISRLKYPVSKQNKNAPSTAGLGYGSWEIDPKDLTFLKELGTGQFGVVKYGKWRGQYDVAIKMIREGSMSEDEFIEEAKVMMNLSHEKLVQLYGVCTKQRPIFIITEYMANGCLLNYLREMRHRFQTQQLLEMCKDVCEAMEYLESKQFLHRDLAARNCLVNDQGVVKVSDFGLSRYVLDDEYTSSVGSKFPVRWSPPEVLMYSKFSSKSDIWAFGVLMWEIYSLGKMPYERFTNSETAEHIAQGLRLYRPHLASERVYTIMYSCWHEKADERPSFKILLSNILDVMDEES

## Cc1cc(-c2cc(Nc3ccc(N4CCN(CCc5ccc(N6CCC(=O)NC6=O)cc5)C[C@@H]4C)cn3)ncn2)ccc1[C@@H](C)NC(=O)c1nc(C(C)(C)C)no1 [Example 1, 3-tert-butyl-N-[(1R)-1-{4-[6-({5-[(2S)-4-{2-[4-(2,4-dioxo-1,3-diazinan-1-yl)phenyl]ethyl}-2-methylpiperazin-1-yl]pyridin-2-yl}amino)pyrimidin-4-yl]-2-methylphenyl}ethyl]-1,2,4-oxadiazole-5-carboxamide]
BTK in mouse bone marrow
  Mouse Bone Marrow (%) (% remaining BTK, vehicle versus treated): 11%
[1]; QD for 19 days, at Dosage 3 and Dosage 4
  CLL burden control (no increase from the initial tumor burden): Complete CLL burden control
[1]; once daily (QD) for 19 days, Dosage 1-4, FIG. 1
  circulating leukemia burden (CD19+CD5+ CLL cells per μL): controlled circulating leukemia burden of the TCL1-driven CLL bearing BTK^C481S mutation in C57BL/6 mice in a dose-dependent manner
